# Laboratory results: patent US11035858B2, “Methods of isolating barrel-like proteases and identifying peptides processed thereby” (Yeda Research and Development Co. Ltd., priority 2016, dated 2021)
# Residues, ends and D or L forms follow the SMILES beside them. *: point of attachment. Cbz = O=C(OCc1ccccc1)*
# Target: T1, Purified proteasomes (Homo sapiens, UniProt P28074)
# T1 construct: using this protocol active proteasomes are efficiently isolated from cells; endogenous in cells; immunoprecipitated with anti-α6 antibodies
# Assay: Proteasome activity-based assay with fluorogenic Suc-LLVY-Amc substrate
# Format: biochemical
# Details: fluorescent LLVY peptide substrate; FIG. 2
# Protocol: Proteasome Activity-Based Assay.
# Purified proteasomes were incubated with the fluorogenic substrate peptide Suc-LLVY-Amc (100 μM) in a reaction mixture containing 50 mM Hepes, pH 7.5, 1 mM DTT, 5 mM MgCl2, and 2 mM ATP. fluorescence of cleaved Amc was measured (excitation, 360 nm; emission, 470 nm).
# A unique system of ‘Proteasomal Profiling’ was developed for the isolation of the active-degradome from the cell by purifying the proteasomal peptide pool, which represents proteins actively undergoing degradation at the time of experiment (FIG. 1). Proteasomal complexes were purified by immunoprecipitation using specific antibodies against the α6 subunit of the 20S core particle. To examine whether the catalytic activity of the proteasomes is retained during the purification procedures, an activity-based assay was performed using a fluorescent LLVY peptide substrate.
smiles,measurement,value
CC(C)C[C@@H](C=O)NC(=O)[C@H](CC(C)C)NC(=O)[C@H](CC(C)C)NC(=O)OCc1ccccc1 [MG132] (Cbz-Leu-Leu-Leu-aldehyde),degradation of the LLVY substrate by purified proteasomes,sensitive
